Values after ≈ are worked out from the molar mass of the structure shown. Read-outs that look alike come from different tables or passages of the source.
Legend:
[1] = tested on: nymphs of cowpea aphid (Aphis craccivora); experiment: Leaf dipping insecticidal bioassay, nymphs of cowpea aphid; format: in vivo; details: 24 h; for LC50: Aphis craccivora, foliar; for Toxic ratio: Acetamiprid's LC50 / the compound's LC50
Method: (§1) The original batches of cowpea aphid insects were collected from pest's laboratory, Plant Protection Research Institute, Agricultural Research Center. The target compounds were screened for their insecticidal activity towards nymphs and adults of cowpea aphid.
(§2) The insecticidal activities of compounds 4 and 5 were measured by using leaf dipping method under the same reported laboratory conditions. Five concentrations of compound 4, 5 and 0.1% Tween-80 as a surfactant were used. Nearly the same size 30 nymphs and 30 adults of cowpea aphid insects were used for dipping for 10 second in every concentration of each compound (repeat three times). Insects which tested were allowed to stand to dry at room temperature for about half an hour. In the control experiment, the insects were dunked in distilled water and 0.1% tween-80 only. These applications were carried out at 5% relative humidity, and at a temperature of 25° C. After the used insect had dried, they were transferred to glass jars containing water. With a new binocular microscope, the aphid mortality was taken after 24 hrs of treatment. Any aphid that was unable to move was considered dead. The LC50 values used to evaluate the insecticidal activity were estimated by probit analysis.

[2] = tested on: adults of cowpea aphid (Aphis craccivora); experiment: Leaf dipping insecticidal bioassay, adults of cowpea aphid; format: in vivo; details: 24 h; for LC50: Aphis craccivora, foliar; for Toxic ratio: Acetamiprid's LC50 / the compound's LC50
Method: as §1, §2

[3] = nymphs, after 24 h of treatment, leaf dipping, probit analysis, read-out: LC50
[4] = adults, after 24 h of treatment, leaf dipping, probit analysis, read-out: LC50

Compound	LC50 [1] [µg/mL]	Toxic ratio ([1]; nymphs)	LC50 [2] [µg/mL]	Toxic ratio ([2]; adults)	LC50 [1, 3] [µg/mL]	LC50 [2, 4] [µg/mL]
C/C(=N\C#N)N(C)Cc1ccc(Cl)nc1 [Acetamiprid, acetamiprid, reference compound]	0.045 (≈ 0.202 µM)	1	0.267 (≈ 1.2 µM)	1		
CCOc1nc(-c2ccccc2)cc(-c2cccnc2)c1C#N [Compound 4, 2′-Ethoxy-6′-phenyl[3,4′-bipyridine]-3′-carbonitrile]		0.576		0.205	~0.0781 (≈ 0.259 µM)	~1.3 (≈ 4.32 µM)
COc1nc(-c2ccccc2)cc(-c2cccnc2)c1C#N [Compound 5, 2′-Methoxy-6′-phenyl[3,4′-bipyridine]-3′-carbonitrile]		0.0534		0.190	~0.0842 (≈ 0.293 µM)	1.4 (≈ 4.87 µM)
